The text below walks through data of patent US20240262804A1, “NITROGEN-CONTAINING HETEROCYCLIC KETONES, PREPARATION METHODS AND MEDICINAL USES THEREOF” (Hansoh Bio LLC, priority 2021, published 2024).

Each structure is given as a SMILES string.

A word on the IC50: it is the concentration at which inhibition is half-maximal.

Sequence of bovine cardiac myosin (Q9BE39 whole entry): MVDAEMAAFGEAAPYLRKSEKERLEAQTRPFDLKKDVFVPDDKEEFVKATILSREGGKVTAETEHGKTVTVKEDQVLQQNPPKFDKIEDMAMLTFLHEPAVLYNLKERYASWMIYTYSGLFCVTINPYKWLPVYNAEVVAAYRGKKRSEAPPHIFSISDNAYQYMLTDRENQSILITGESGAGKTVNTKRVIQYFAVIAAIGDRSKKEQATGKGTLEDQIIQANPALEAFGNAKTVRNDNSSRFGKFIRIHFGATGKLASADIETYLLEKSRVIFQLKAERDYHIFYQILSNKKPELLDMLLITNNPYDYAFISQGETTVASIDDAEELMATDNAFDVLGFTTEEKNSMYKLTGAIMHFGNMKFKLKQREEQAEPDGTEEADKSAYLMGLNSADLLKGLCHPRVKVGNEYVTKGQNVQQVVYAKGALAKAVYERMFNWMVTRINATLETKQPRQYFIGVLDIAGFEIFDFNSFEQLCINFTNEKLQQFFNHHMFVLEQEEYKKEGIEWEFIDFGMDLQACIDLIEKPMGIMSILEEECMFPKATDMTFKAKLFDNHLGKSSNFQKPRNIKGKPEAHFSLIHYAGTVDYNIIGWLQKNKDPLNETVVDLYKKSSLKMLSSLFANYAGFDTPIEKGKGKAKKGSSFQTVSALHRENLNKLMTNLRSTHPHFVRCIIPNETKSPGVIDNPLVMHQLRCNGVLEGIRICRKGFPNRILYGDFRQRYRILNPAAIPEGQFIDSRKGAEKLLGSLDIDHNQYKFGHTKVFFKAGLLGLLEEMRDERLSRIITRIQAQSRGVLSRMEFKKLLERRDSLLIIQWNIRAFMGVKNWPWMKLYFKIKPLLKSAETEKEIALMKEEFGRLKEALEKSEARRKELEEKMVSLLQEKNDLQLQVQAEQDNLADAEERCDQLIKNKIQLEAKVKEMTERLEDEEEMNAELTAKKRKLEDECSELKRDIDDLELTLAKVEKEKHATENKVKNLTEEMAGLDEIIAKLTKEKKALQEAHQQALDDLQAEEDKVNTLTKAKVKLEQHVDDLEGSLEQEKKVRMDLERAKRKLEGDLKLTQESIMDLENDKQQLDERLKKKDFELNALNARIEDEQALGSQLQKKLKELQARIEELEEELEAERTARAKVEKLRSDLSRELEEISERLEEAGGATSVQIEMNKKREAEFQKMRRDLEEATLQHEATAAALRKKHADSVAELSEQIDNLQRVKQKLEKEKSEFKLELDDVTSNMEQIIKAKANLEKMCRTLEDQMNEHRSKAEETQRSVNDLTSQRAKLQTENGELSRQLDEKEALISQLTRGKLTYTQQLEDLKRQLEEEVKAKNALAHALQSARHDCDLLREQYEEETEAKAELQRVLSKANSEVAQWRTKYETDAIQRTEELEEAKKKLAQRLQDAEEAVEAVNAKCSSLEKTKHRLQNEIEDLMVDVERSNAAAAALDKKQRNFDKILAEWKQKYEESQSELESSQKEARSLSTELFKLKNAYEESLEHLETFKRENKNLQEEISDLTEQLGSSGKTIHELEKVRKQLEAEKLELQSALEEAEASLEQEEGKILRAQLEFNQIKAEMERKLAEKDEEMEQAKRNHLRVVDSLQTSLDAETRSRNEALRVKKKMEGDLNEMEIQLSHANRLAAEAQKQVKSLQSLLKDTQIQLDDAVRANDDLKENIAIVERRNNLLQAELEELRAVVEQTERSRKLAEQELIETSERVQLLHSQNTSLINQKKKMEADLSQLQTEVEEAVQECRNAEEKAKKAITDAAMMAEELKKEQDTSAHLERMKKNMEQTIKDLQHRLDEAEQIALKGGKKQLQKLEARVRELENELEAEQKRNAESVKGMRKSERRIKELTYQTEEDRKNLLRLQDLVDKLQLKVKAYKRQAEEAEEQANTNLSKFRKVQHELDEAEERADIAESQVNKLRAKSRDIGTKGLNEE
Sequence of bovine cardiac myosin (P85100 whole entry partner): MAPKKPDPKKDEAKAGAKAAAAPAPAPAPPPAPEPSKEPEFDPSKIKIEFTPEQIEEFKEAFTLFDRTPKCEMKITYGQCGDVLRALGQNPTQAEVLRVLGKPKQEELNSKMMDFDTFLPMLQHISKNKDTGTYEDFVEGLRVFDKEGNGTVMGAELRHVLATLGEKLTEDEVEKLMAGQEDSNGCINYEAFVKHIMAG
Sequence of bovine cardiac myosin (Q3SZE5 whole entry partner): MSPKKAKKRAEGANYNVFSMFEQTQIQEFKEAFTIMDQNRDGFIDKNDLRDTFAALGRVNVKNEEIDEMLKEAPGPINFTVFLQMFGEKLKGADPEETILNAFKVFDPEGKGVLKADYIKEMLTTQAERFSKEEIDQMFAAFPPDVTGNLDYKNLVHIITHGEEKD

This experiment has as its target bovine cardiac myosin (Bos taurus (Bovine), UniProt Q9BE39). Kind of experiment: Myosin inhibitory potency: PK/LDH-coupled ATPase assay on bovine skinned cardiac myofibrils. Particulars: pCa=6.25, 50 μM ATP, 25° C., read-out: myosin inhibition activity IC50. Format: biochemical. On the procedure: The average rates of ATPase inhibition, and the IC50 values are determined by Victor Nivo multimode plate reader (PerkinElmer, USA).
As to the assays background, a biochemical assay couples the ATPase activity of bovine cardiac myosin to an enzymatic coupling system consisting of pyruvate kinase and lactate dehydrogenase (PK/LDH) and monitoring the absorbance decrease of NADH (at 340 nm) as a function of time to measure the inhibitory ability of small molecule agents. In the assay, PK converts ADP (Adenosine diphosphate) to ATP (adenosine triphosphate) by converting PEP (phosphoenolpyruvate) to pyruvate. Pyruvate is then converted to lactate by LDH by converting NADH (nicotinamide adenine dinucleotide) to NAD (oxidized nicotinamide adenine dinucleotide).
In our experiments, bovine skinned cardiac myofibrils were isolated from the frozen bovine left ventricle as myosin's source in the ATPase assay. The calcium concentration that achieves a 50% (pCa50 or pCa=6.25) activation of the myofibril system was chosen as the final condition for assessing the activation activity according to the literature (DOI: 10.1074/jbc.M117.776815). Myofibrils ATPase activity was measured in a buffered solution containing 12 mM PIPES (piperazine-N, N′-bis(2-ethane sulfonic acid) and 2 mM magnesium chloride at pH 6.8 (PM12 buffer). Final assay conditions were 1 mg/mL of bovine cardiac myofibrils, 1:20 of stock PK/LDH (Sigma-Aldrich, Cat No. P0294-5X5ML), 50 μM ATP, 1 mM DTT (dithiothreitol), 0.75 mM NADH, 1.5 mM PEP at pCa50 (pCa=6.25). Compounds were dissolved in DMSO (dimethyl sulfoxide). Serial dilution of compounds was created such that the final desired concentration of compound would be achieved in a volume of 150 μL with a fixed DMSO concentration of 2% (v/v). 75 μL of a solution containing bovine cardiac myofibrils, PK/LDH, and calcium were added to a 96 well plate for a 7 point dose-response. In some circumstances, 10 point-response was used to repeat the ATPase assays on compounds of interest. Compounds were added to the myofibrils solution and incubated for 5 minutes. The enzymatic reaction was started with the addition of 75 μL of a solution containing ATP, PEP, NADH, compounds, and calcium. The ATPase activity was measured by reading absorbance at 340 nm in a PerkinElmer Victor Nivo plate reader at 25° C. in kinetic mode for 15 minutes using clear bottom plates. The slopes of the absorbance changes as a function of time for the first 10 minutes were normalized to slopes on the control wells containing all reagents, including DMSO, but without compounds. This normalized rate was then plotted as a function of small molecule concentration in GraphPad prism 9. The data were fitted to a four-parameter fit, and IC50 was calculated using Graphpad Prism 9.
Take `C[C@H](Nc1nc(=O)n([C@@H](C)C(F)(F)F)c(=O)[nH]1)c1cccc(C(F)(F)F)c1` [Example 332]: the IC50 amounted to 1.39 µM.

Take `C[C@H](Nc1nc(=O)n(C2CCOCC2)c(=O)[nH]1)c1cccc(C#N)c1` [Example 327]: the 50% inhibitory concentration (IC50) amounted to 1.27 µM.

Consider `C[C@@H](Nc1nc(=O)n(C2CCOCC2)c(=O)[nH]1)c1cccc(C2CC2)c1` [Example 306], for which the IC50 was 1.22 µM.

As to `C[C@H](Nc1nc(=O)n([C@H]2CC[C@H](O)CC2)c(=O)[nH]1)C1CCCCC1` [Example 238], the IC50 was determined as 4.28 µM.

With `C[C@H](Nc1nc(=O)n(C2CCNC(=O)C2)c(=O)[nH]1)C1CCCCC1` (some centres unmarked) [Example 22], the IC50 was 13.2 µM.

As to `CC(Nc1nc(=O)n(C2CCN(C(=O)OC(C)(C)C)CC2)c(=O)[nH]1)c1ccc(C(F)(F)F)cc1` (centres unmarked) [Example 145], the IC50 turned out to be 3.77 µM.

Regarding `C[C@H](Nc1nc(=O)n(-c2cccnc2)c(=O)[nH]1)C1CCCCC1` [Example 24], the IC50 was 9.14 µM.

In the case of `CC(C)n1c(=O)nc(NCCC2CCCCC2)[nH]c1=O` [Example 65], the IC50 came out at 4.23 µM.

Consider `CC(Nc1nc(=O)n(C2CCOCC2)c(=O)[nH]1)c1ccccc1F` (centres unmarked) [Example 121], for which the IC50 came out at 2.62 µM.

With `C[C@H](Nc1nc(=O)n(C2CCN(C)C(=O)C2)c(=O)[nH]1)C1CCCCC1` (some centres unmarked) [Example 23], the IC50 came out at 8.05 µM.

On to `CC[C@H](Nc1nc(=O)n(C(C)C)c(=O)[nH]1)C1CCCCC1` [Example 70], for which the IC50 is 5.28 µM.

Regarding `Cc1ccccc1C(C)Nc1nc(=O)n(C2CCNCC2)c(=O)[nH]1` (centres unmarked) [Example 189], the half-maximal inhibitory concentration (IC50) worked out at 6.72 µM.

For the compound `CNC(=O)N1CCC(n2c(=O)nc(N[C@@H](C)c3cccc(C)c3)[nH]c2=O)CC1` [Example 245], the IC50 is 5.5 µM.

Consider `C[C@H](Nc1nc(=O)n(C2CCOCC2)c(=O)[nH]1)c1cccc(N2CC(C)(C)C2)c1` [Example 214], for which the IC50 worked out at 3.4 µM.

Consider `C[C@H](Nc1nc(=O)n(C2CCOCC2)c(=O)[nH]1)c1cccc(C2=CCN(C(=O)OC(C)(C)C)CC2)c1` [Example 210], for which the IC50 stood at 3.3 µM.

For `CC(Nc1nc(=O)n(C2CCOCC2)c(=O)[nH]1)c1ccc(O)cc1` (centres unmarked) [Example 103], the IC50 is 14.1 µM.

As for `COC[C@@H](Nc1nc(=O)n(C2CCOCC2)c(=O)[nH]1)c1cc(C)ccc1F` [Example 278], the IC50 worked out at 0.63 µM.

Regarding `Cc1ccc(F)c([C@H](C)Nc2nc(=O)n([C@H](C)C(F)(F)F)c(=O)[nH]2)c1` [Example 302], the IC50 came out at 0.88 µM.

As to `CC(Nc1nc(=O)n(C2CCOCC2)c(=O)[nH]1)C1CCCCCC1` (centres unmarked) [Example 109], the IC50 was determined as 4.58 µM.

For `Cc1cccc([C@H](Nc2nc(=O)n(C3CCOCC3)c(=O)[nH]2)C(F)F)c1` [Example 284], the IC50 was 0.29 µM.

`CC(O)c1cccc([C@H](C)Nc2nc(=O)n(C3CCOCC3)c(=O)[nH]2)c1` (some centres unmarked) [Example 248]: the IC50 is 1.5 µM.

On to `C[C@H](Nc1nc(=O)n(-c2ccccn2)c(=O)[nH]1)C1CCCCC1` [Example 57], for which the IC50 is 7.4 µM.

Take `C[C@H](Nc1nc(=O)n(C2CCOCC2)c(=O)[nH]1)c1ccccc1Cl` [Example 159]: the IC50 amounted to 0.47 µM.

As to `C[C@H](Nc1nc(=O)n([C@H]2CCOC[C@H]2F)c(=O)[nH]1)c1cccc(C(F)(F)F)c1` [Example 310], the 50% inhibitory concentration (IC50) is 1.49 µM.

Turning to `Cc1cccc(C(C)Nc2nc(=O)n(C3CCOCC3)c(=O)[nH]2)c1` (centres unmarked) [Example 133], the half-inhibitory concentration (IC50) was determined as 0.24 µM.

Consider `CC(Nc1nc(=O)n(C2CCOCC2)c(=O)[nH]1)c1ccc2c(c1)OCO2` (centres unmarked) [Example 128], for which the IC50 is 1.88 µM.

For `C[C@H](Nc1nc(=O)n(C2CCN(CCF)CC2)c(=O)[nH]1)C1CCCCC1` [Example 300], the IC50 was 2.29 µM.

As to `CC(C)n1c(=O)nc(N[C@H](c2cccc(C(C)(C)C#N)c2)C(F)F)[nH]c1=O` [Example 264], the IC50 came out at 1.37 µM.

For the compound `Cc1cnn(-c2cccc([C@H](C)Nc3nc(=O)n(C4CCOCC4)c(=O)[nH]3)c2)c1` [Example 204], the IC50 came to 5.43 µM.
